The NIST ThermoML archive (doi:10.1021/je060271a)

Conditions: 283.15 K, Liquid, Vibrating tube method

CCCC(=O)OCC(COC(=O)CCC)(COC(=O)CCC)COC(=O)CCC [pentaerythritol tetrabutyrate]
Conditions	mass density [kg/m3]
5069.8 kPa	1062.1
5785 kPa	1062.4
5790.3 kPa	1062.5
5796.4 kPa	1062.5
6791.4 kPa	1063
7204.6 kPa	1063.2
7259.3 kPa	1063.3
7320.1 kPa	1063.4
7411.4 kPa	1063.4
7437.1 kPa	1063.4
7462.9 kPa	1063.3
7545.9 kPa	1063.4
7572.6 kPa	1063.5
7606 kPa	1063.5
7632.9 kPa	1063.5
7657.7 kPa	1063.5
7681.7 kPa	1063.5
7710.4 kPa	1063.4
7734.6 kPa	1063.6
8293.1 kPa	1063.8
11358 kPa	1065.7
11377 kPa	1065.7
11399 kPa	1065.7
11419 kPa	1065.6
11438 kPa	1065.6
11456 kPa	1065.7
11667 kPa	1065.7
11687 kPa	1066
11708 kPa	1065.9
11731 kPa	1065.8
11751 kPa	1065.9
11775 kPa	1066
11795 kPa	1066
11816 kPa	1065.9
11836 kPa	1065.9
11862 kPa	1065.9
11882 kPa	1065.9
11903 kPa	1065.9
11928 kPa	1066
11949 kPa	1066
11995 kPa	1065.9
12016 kPa	1066
13152 kPa	1066.7
13178 kPa	1066.7
13234 kPa	1066.6
13898 kPa	1067.1
15509 kPa	1068
15590 kPa	1068
15620 kPa	1068.1
15664 kPa	1068.1
15701 kPa	1068
15739 kPa	1068
15784 kPa	1068.2
15822 kPa	1068.1
15860 kPa	1068.2
15906 kPa	1068.2
17727 kPa	1069.2
17738 kPa	1069.3
17748 kPa	1069.2
17759 kPa	1069.3
17769 kPa	1069.2
17778 kPa	1069.1
18091 kPa	1069.4
18103 kPa	1069.5
18112 kPa	1069.4
18122 kPa	1069.4
18135 kPa	1069.5
18145 kPa	1069.4
18166 kPa	1069.5
18176 kPa	1069.4
18264 kPa	1069.5
18274 kPa	1069.6
18296 kPa	1069.4
18306 kPa	1069.5
18318 kPa	1069.6
18328 kPa	1069.5
18338 kPa	1069.5
18351 kPa	1069.5
18864 kPa	1069.8
18899 kPa	1069.8
18956 kPa	1069.9
18967 kPa	1069.8
18980 kPa	1069.6
18991 kPa	1069.8
19143 kPa	1069.9
19349 kPa	1070.2
19360 kPa	1070.1
19371 kPa	1070.1
19383 kPa	1070
19397 kPa	1070.1
19419 kPa	1070.1
19433 kPa	1070.3
19458 kPa	1070.2
19470 kPa	1070.1
20345 kPa	1070.6
20358 kPa	1070.6
20371 kPa	1070.7
20383 kPa	1070.7
20398 kPa	1070.7
20411 kPa	1070.7
20426 kPa	1070.8
20439 kPa	1070.8
20452 kPa	1070.6
20631 kPa	1070.8
20647 kPa	1070.9
20659 kPa	1070.9
20673 kPa	1070.8
20689 kPa	1070.8
20702 kPa	1070.8
20718 kPa	1070.8
20731 kPa	1070.8
20744 kPa	1070.9
20757 kPa	1070.9
20943 kPa	1071
20960 kPa	1071
20973 kPa	1071
20987 kPa	1071
21354 kPa	1071.2
21371 kPa	1071.2
21386 kPa	1071.4
21583 kPa	1071.3
21614 kPa	1071.3
21629 kPa	1071.5
21646 kPa	1071.3
21661 kPa	1071.2
21676 kPa	1071.4
21691 kPa	1071.4
21708 kPa	1071.3
21738 kPa	1071.4
21756 kPa	1071.4
21770 kPa	1071.4
21833 kPa	1071.5
21848 kPa	1071.5
21866 kPa	1071.5
21881 kPa	1071.5
21895 kPa	1071.5
21910 kPa	1071.5
21928 kPa	1071.5
21943 kPa	1071.7
21958 kPa	1071.6
21976 kPa	1071.6
21991 kPa	1071.5
22008 kPa	1071.6
22350 kPa	1071.7
22366 kPa	1071.8
22381 kPa	1071.6
